US11702404B2, “GLP-1R modulating compounds” (priority 2019, dated 2023)

Legend:
[1] = Microsomal stability, human liver microsomes (predicted hepatic clearance); settings: predicted from in vitro microsomal stability data
GLP-1R = GLP-1R (Homo sapiens, UniProt P43220); assay: GLP-1R activation: cAMP increase in CHO cells stably expressing GLP-1R; format: cell-based; settings: cAMP increase, CHO cells stably expressing GLP-1R, 10 point dose response, 30 minutes incubation; read-out: EC50
Chain of GLP-1R (P43220 24-463): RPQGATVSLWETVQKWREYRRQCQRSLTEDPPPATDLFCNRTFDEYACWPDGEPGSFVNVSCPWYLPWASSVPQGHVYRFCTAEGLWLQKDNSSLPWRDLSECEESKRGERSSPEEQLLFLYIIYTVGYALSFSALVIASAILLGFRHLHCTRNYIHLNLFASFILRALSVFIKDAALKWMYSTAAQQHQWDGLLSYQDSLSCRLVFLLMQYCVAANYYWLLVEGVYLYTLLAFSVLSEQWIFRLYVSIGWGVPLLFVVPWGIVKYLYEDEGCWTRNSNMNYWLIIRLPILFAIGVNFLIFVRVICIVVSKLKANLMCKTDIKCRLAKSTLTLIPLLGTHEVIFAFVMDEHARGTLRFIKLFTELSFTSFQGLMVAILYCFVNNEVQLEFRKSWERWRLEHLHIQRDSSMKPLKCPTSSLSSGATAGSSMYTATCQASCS

SMILES	Predicted Hepatic Clearance (Pred. Cl.) [1] [mL/min/kg]	EC50 (GLP-1R) [nM]
N#Cc1ccc(COc2cccc(-c3cc(F)c(Cc4nc5ccc(C(=O)O)cc5n4Cc4cnccn4)cc3F)n2)c(F)c1 [Example 310, 2-(4-(6-((4-cyano-2-fluorobenzyl)oxy)pyridin-2-yl)-2,5-difluorobenzyl)-1-(pyrazin-2-ylmethyl)-1H-benzo[d]imidazole-6-carboxylic acid]	6.33	16.3
N#Cc1ccc(COc2cccc(-c3cc(F)c(Cc4nc5ccc(C(=O)O)cc5n4Cc4ccccn4)cc3F)n2)c(F)c1 [Example 311, 2-(4-(6-((4-cyano-2-fluorobenzyl)oxy)pyridin-2-yl)-2,5-difluorobenzyl)-1-(pyridin-2-ylmethyl)-1H-benzo[d]imidazole-6-carboxylic acid]	7	95.6
COCCn1c(Cc2cc(Cl)c(-c3cccc(OCc4ccc(C#N)cc4F)n3)cc2F)nc2ccc(C(=O)O)cc21 [Example 314, 2-(5-chloro-4-(6-((4-cyano-2-fluorobenzyl)oxy)pyridin-2-yl)-2-fluorobenzyl)-1-(2-methoxyethyl)-1H-benzo[d]imidazole-6-carboxylic acid]	5	12.5
N#Cc1ccc(COc2cccc(-c3ccc(Cc4nc5ccc(C(=O)O)cc5n4CC4(O)COC4)c(F)c3)n2)c(F)c1 [Example 316, 2-(4-(6-((4-cyano-2-fluorobenzyl)oxy)pyridin-2-yl)-2-fluorobenzyl)-1-((3-hydroxyoxetan-3-yl)methyl)-1H-benzo[d]imidazole-6-carboxylic acid]	4.67	14
N#Cc1ccc(COc2nccc(-c3cc(F)c(Cc4nc5ccc(C(=O)O)cc5n4CC4(CF)CC4)c(F)c3)n2)c(F)c1 [Example 317, 2-(4-(2-((4-cyano-2-fluorobenzyl)oxy)pyrimidin-4-yl)-2,6-difluorobenzyl)-1-((1-(fluoromethyl)cyclopropyl)methyl)-1H-benzo[d]imidazole-6-carboxylic acid]	2.67	1.05
O=C(O)c1ccc2nc(Cc3ccc(-c4ccnc(OCc5ccc(Cl)cc5F)n4)c(F)c3)n(CC3(CF)CC3)c2n1 [Example 318, 2-(4-(2-((4-chloro-2-fluorobenzyl)oxy)pyrimidin-4-yl)-3-fluorobenzyl)-3-((1-(fluoromethyl)cyclopropyl)methyl)-3H-imidazo[4,5-b]pyridine-5-carboxylic acid]	<1.83	1.07
COCCn1c(Cc2ccc(-c3ccc(F)c(OCc4ccc(C#N)cc4F)n3)c(F)c2)nc2ccc(C(=O)O)cc21 [Example 320, 2-(4-(6-((4-cyano-2-fluorobenzyl)oxy)-5-fluoropyridin-2-yl)-3-fluorobenzyl)-1-(2-methoxyethyl)-1H-benzo[d]imidazole-carboxylic acid]	4.17	18
N#Cc1ccc(COc2cccc(-c3ccc(Cc4nc5ccc(C(=O)O)cc5n4CCOC(F)F)c(F)c3)n2)c(F)c1 [Example 324, 2-(4-(6-((4-cyano-2-fluorobenzyl)oxy)pyridin-2-yl)-2-fluorobenzyl)-1-(2-(difluoromethoxy)ethyl)-1H-benzo[d]imidazole-6-carboxylic acid]	2.83	5.22
N#Cc1ccc(COc2cccc(-c3cc(F)c(Cc4nc5ccc(C(=O)O)cc5n4CCOC(F)F)cc3F)n2)c(F)c1 [Example 325, 2-(4-(6-((4-cyano-2-fluorobenzyl)oxy)pyridin-2-yl)-2,5-difluorobenzyl)-1-(2-(difluoromethoxy)ethyl)-1H-benzo[d]imidazole-6-carboxylic acid]	5.67	1.61
N#Cc1ccc(COc2cccc(-c3ccc(Cc4nc5ccc(C(=O)O)cc5n4CC4(CO)COC4)c(F)c3)n2)c(F)c1 [Example 326, 2-(4-(6-((4-cyano-2-fluorobenzyl)oxy)pyridin-2-yl)-2-fluorobenzyl)-1-((3-(hydroxymethyl)oxetan-3-yl)methyl)-1H-benzo[d]imidazole-6-carboxylic acid]	12.3	6.81
COCCn1c(Cc2ccc(-c3cccc(OCc4ccc(C#N)cc4OC4CC4)n3)cc2F)nc2ccc(C(=O)O)cc21 [Example 346, 2-(4-(6-((4-cyano-2-cyclopropoxybenzyl)oxy)pyridin-2-yl)-2-fluorobenzyl)-1-(2-methoxyethyl)-1H-benzo[d]imidazole-6-carboxylic acid]	7.83	94.6
CC(C)n1c(Cc2ccc(-c3cccc(OCc4ccc(C#N)cc4F)n3)cc2F)nc2ccc(C(=O)O)cc21 [Example 347, 2-(4-(6-((4-cyano-2-fluorobenzyl)oxy)pyridin-2-yl)-2-fluorobenzyl)-1-isopropyl-1H-benzo[d]imidazole-6-carboxylic acid]	5.5	92.6

Results, then the molecule that gave them:

Predicted Hepatic Clearance (Pred. Cl.) [1] [mL/min/kg]	EC50 (GLP-1R) [nM]	SMILES
5.17	2.16	COCCn1c(Cc2cc(F)c(-c3cccc(OCc4ccc(C#N)cc4F)n3)cc2F)nc2ccc(C(=O)O)c(F)c21 [Example 309, 2-(4-(6-((4-cyano-2-fluorobenzyl)oxy)pyridin-2-yl)-2,5-difluorobenzyl)-7-fluoro-1-(2-methoxyethyl)-1H-benzo[d]imidazole-6-carboxylic acid]
4.67	250	N#Cc1ccc(COc2cccc(-c3cc(F)c(Cc4nc5ccc(C(=O)O)cc5n4Cc4ccc[nH]c4=O)cc3F)n2)c(F)c1 [Example 312, 2-(4-(6-((4-cyano-2-fluorobenzyl)oxy)pyridin-2-yl)-2,5-difluorobenzyl)-1-((2-oxo-1,2-dihydropyridin-3-yl)methyl)-1H-benzo[d]imidazole-6-carboxylic acid]
7.17	3.25	N#Cc1ccc(COc2cccc(-c3ccc(Cc4nc5ccc(C(=O)O)cc5n4CC4(n5cncn5)CC4)c(F)c3)n2)c(F)c1 [Example 313, 1-((1-(1H-1,2,4-triazol-1-yl)cyclopropyl)methyl)-2-(4-(6-((4-cyano-2-fluorobenzyl)oxy)pyridin-2-yl)-2-fluorobenzyl)-1H-benzo[d]imidazole-6-carboxylic acid]
5.67	2.08	N#Cc1ccc(COc2cccc(-c3ccc(Cc4nc5c(F)cc(C(=O)O)cc5n4CC4(C#N)CC4)c(F)c3)n2)c(F)c1 [Example 315, 2-(4-(6-((4-cyano-2-fluorobenzyl)oxy)pyridin-2-yl)-2-fluorobenzyl)-1-((l-cyanocyclopropyl)methyl)-4-fluoro-1H-benzo[d]imidazole-6-carboxylic acid]
<1.83	2.43	N#Cc1ccc(COc2cccc(-c3cc(F)c(Cc4nc5ccc(C(=O)O)nc5n4CC4(CF)CC4)c(F)c3)n2)c(F)c1 [Example 319, 2-(4-(6-((4-cyano-2-fluorobenzyl)oxy)pyridin-2-yl)-2,6-difluorobenzyl)-3-((1-(fluoromethyl)cyclopropyl)methyl)-3H-imidazo[4,5-b]pyridine-5-carboxylic acid]
6.33	0.27	O=C(O)c1ccc2nc(Cc3ccc(-c4cccc(OCc5ccc(Cl)cc5F)n4)c(F)c3)n(CC3(CF)CC3)c2n1 [Example 321, 2-(4-(6-((4-chloro-2-fluorobenzyl)oxy)pyridin-2-yl)-3-fluorobenzyl)-3-((1-(fluoromethyl)cyclopropyl)methyl)-3H-imidazo[4,5-b]pyridine-5-carboxylic acid]
12.3	0.58	COc1cc(C#N)ccc1COc1nccc(-c2ccc(Cc3nc4ccc(C(=O)O)nc4n3CC3(CF)CC3)cc2F)n1 [Example 322, 2-(4-(2-((4-cyano-2-methoxybenzyl)oxy)pyrimidin-4-yl)-3-fluorobenzyl)-3-((1-(fluoromethyl)cyclopropyl)methyl)-3H-imidazo[4,5-b]pyridine-5-carboxylic acid]
4.33	27.5	N#Cc1ccc(COc2cccc(-c3ccc(Cc4nc5ccc(C(=O)O)cc5n4CCOC(F)(F)F)c(F)c3)n2)c(F)c1 [Example 323, 2-(4-(6-((4-cyano-2-fluorobenzyl)oxy)pyridin-2-yl)-2-fluorobenzyl)-1-(2-(trifluoromethoxy)ethyl)-1H-benzo[d]imidazole-6-carboxylic acid]
3	7.73	CO[C@H](C)Cn1c(Cc2ccc(-c3cccc(OCc4ccc(C#N)cc4F)n3)cc2F)nc2ccc(C(=O)O)cc21 [Example 327, (R)-2-(4-(6-((4-cyano-2-fluorobenzyl)oxy)pyridin-2-yl)-2-fluorobenzyl)-1-(2-methoxypropyl)-1H-benzo[d]imidazole-6-carboxylic acid]
4	12.3	CO[C@@H](C)Cn1c(Cc2ccc(-c3cccc(OCc4ccc(C#N)cc4F)n3)cc2F)nc2ccc(C(=O)O)cc21 [Example 331, (S)-2-(4-(6-((4-cyano-2-fluorobenzyl)oxy)pyridin-2-yl)-2-fluorobenzyl)-1-(2-methoxypropyl)-1H-benzo[d]imidazole-6-carboxylic acid]
<1.83	1.56	N#Cc1ccc(COc2nccc(-c3ccc(Cc4nc5ccc(C(=O)O)cc5n4CC4(CF)CC4)c(F)c3)n2)c(F)c1 [Example 344, 2-(4-(2-((4-cyano-2-fluorobenzyl)oxy)pyrimidin-4-yl)-2-fluorobenzyl)-1-((1-(fluoromethyl)cyclopropyl)methyl)-1H-benzo[d]imidazole-6-carboxylic acid]
3.83	175	COCCn1c(Cc2ccc(-c3cccc(OCc4ccc(C#N)cc4F)n3)cc2F)nc2c(OC)cc(C(=O)O)cc21 [Example 345, 2-(4-(6-((4-cyano-2-fluorobenzyl)oxy)pyridin-2-yl)-2-fluorobenzyl)-4-methoxy-1-(2-methoxyethyl)-1H-benzo[d]imidazole-6-carboxylic]
